Experiments:
[1] = system: Human immunodeficiency virus 1; test: Antiviral activity against wild-type HIV-1 infected in human MT4 cells; format: functional, organism-based; conditions: Human immunodeficiency virus 1, MT4
[2] = system: Human immunodeficiency virus 1; test: Antiviral activity against HIV-1 harboring reverse transcriptase K103N/Y181C double mutant infected in human MT4 cells; format: functional, organism-based; conditions: Human immunodeficiency virus 1, MT4
[3] = Cytotoxicity against human MT4 cells; format: cell-based
[4] = Selectivity index, ratio of CC50 for human MT4 cells to EC50 for wild-type HIV-1 infected in human MT4 cells; format: toxicity, cell-based; conditions: uninfected and infected with wild-type HIV-1, read-out: Ratio CC50/EC50
[5] = Selectivity index, ratio of CC50 for human MT4 cells to EC50 for HIV-1 harboring reverse transcriptase K103N/Y181C double mutant infected in human MT4 cells; format: toxicity, cell-based; conditions: read-out: Ratio CC50/EC50
[6] = system: Human immunodeficiency virus 1; test: Antiviral activity against HIV-1 3B infected in human MT4 cells assessed as cell viability after 5 days by MTT assay; format: functional, organism-based; conditions: Human immunodeficiency virus 1, 3B, MT4, 120 h

`O=C(CSc1nnsc1-c1cccc2ccccc12)Nc1cccnc1Cl` gave an EC50 [1] of 0.019 µM, an EC50 [2] of 5.11 µM and a CC50 [3] of 121 µM. The selectivity ratio [4] was 6440 and the selectivity ratio [5] was 24.

Work on `O=C(CSc1sc(Cl)nc1-c1ccc(Br)cc1Br)Nc1ccccc1[N+](=O)[O-]` yielded an EC50 [6] of 2.09 µM.

For `O=C(CSc1nnsc1-c1cccc2ccccc12)Nc1ccccc1Br`, the EC50 [1] was 0.044 µM, the EC50 [2] was 34.4 µM and the CC50 [3] was 172 µM. It also gave a selectivity ratio [4] of 3920 and a selectivity ratio [5] of 5.

From ChEMBL document CHEMBL3621063, “Discovery of potent HIV-1 non-nucleoside reverse transcriptase inhibitors from arylthioacetanilide structural motif” (Eur J Med Chem, 2015)
